Test systems include M14 melanoma; SK-OV-3 ovarian; U251 CNS; SW-620 colon; DU-145 prostate; SK-MEL-2 melanoma; A498 renal; CCRF-CEM leukemia; NCI-H23 lung; MCF7 breast; K-562 leukemia; NCI/ADR-RES ovarian; UACC-257 melanoma; UACC-62 melanoma; HCT-15 colon; LOX IMVI melanoma.
Experiment in all cases: NCI anticancer screen, dose series, 48 h

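Protocol summary: plate cells (96-well), add compound at 5 concentrations, incubate 48 h, interpolate endpoints linearly. GI50: concentration for 50% inhibition of growth. TGI is the concentration that stops growth completely.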

Regarding `CCOC(=O)/C=C1\C[C@H](NC(=O)OCc2ccccc2)C(=O)N1CC(=O)OCC`, the TGI with M14 melanoma, with SK-OV-3 ovarian, in the test on U251 CNS, with SW-620 colon, with DU-145 prostate and in the test with SK-MEL-2 melanoma was above 100 µM throughout. The TGI in the test on A498 renal, with CCRF-CEM leukemia, with NCI-H23 lung, with MCF7 breast, in the test on K-562 leukemia and in the test on NCI/ADR-RES ovarian was above 100 µM throughout. The TGI in the test with UACC-257 melanoma, in the test on UACC-62 melanoma and in the test with HCT-15 colon was above 100 µM each time.
With `O=C(O)CCCN=C(C(=NCCCC(=O)O)c1ccccc1)c1ccccc1`, the TGI in the test with M14 melanoma, with SK-OV-3 ovarian, with U251 CNS, in the test with SW-620 colon, in the test with DU-145 prostate and with SK-MEL-2 melanoma was above 100 µM throughout. The TGI with A498 renal, in the test with LOX IMVI melanoma, in the test on NCI-H23 lung, in the test with MCF7 breast, in the test with K-562 leukemia and in the test with NCI/ADR-RES ovarian was above 100 µM in each case. Moreover, the TGI in the test with UACC-257 melanoma, in the test with UACC-62 melanoma and in the test with HCT-15 colon was above 100 µM in each case.
Take `Cc1ccc(C)c(C(=N)c2ccccc2Cc2ccccc2)c1`: the TGI with M14 melanoma was above 100 µM; in the test with SK-OV-3 ovarian, 79.1 µM; in the test with U251 CNS, 30.4 µM; in the test on SW-620 colon, above 100 µM; in the test with DU-145 prostate, 48.1 µM; in the test on SK-MEL-2 melanoma, 32 µM. Besides, the TGI in the test with A498 renal is 53.9 µM; with LOX IMVI melanoma, 31.7 µM; in the test on NCI-H23 lung, above 100 µM; in the test on MCF7 breast, 32.4 µM; in the test with K-562 leukemia, 58.7 µM; in the test on NCI/ADR-RES ovarian, above 100 µM. For the same compound, the results for the TGI with UACC-257 melanoma, in the test with UACC-62 melanoma and in the test with HCT-15 colon were 73.1 µM, 33.4 µM and above 100 µM, respectively.
As to `CC(=O)Oc1ccc2c3c1[C@@H]1O[C@@H]1c1cccc(c1-3)[C@@H]1O[C@H]21`, the TGI with M14 melanoma was 3.27 µM; with SK-OV-3 ovarian, 9.71 µM; in the test on DU-145 prostate, 4.18 µM; in the test on SK-MEL-2 melanoma, above 100 µM; in the test on A498 renal, 6.57 µM; in the test with LOX IMVI melanoma, 2.02 µM. The TGI in the test on CCRF-CEM leukemia is 3.94 µM; with MCF7 breast it was above 100 µM; in the test with K-562 leukemia, above 100 µM; in the test with NCI/ADR-RES ovarian, 3.76 µM; in the test on UACC-257 melanoma, above 100 µM; in the test on UACC-62 melanoma, 3.44 µM. Moreover, the GI50 in the test with SK-MEL-2 melanoma is 3.12 µM; in the test on LOX IMVI melanoma, 0.65 µM; in the test on NCI/ADR-RES ovarian, 1.4 µM; with UACC-257 melanoma, 2.75 µM.
`C=C(C)COC(=O)COCC(=O)OCC(=C)C`: the TGI with M14 melanoma, in the test on SK-OV-3 ovarian, with U251 CNS, with SW-620 colon, in the test with DU-145 prostate and with A498 renal was above 100 µM throughout. Moreover, the TGI in the test with CCRF-CEM leukemia, in the test with NCI-H23 lung, in the test with MCF7 breast, in the test on K-562 leukemia, in the test with NCI/ADR-RES ovarian and in the test with UACC-257 melanoma was above 100 µM in each case. Moreover, the TGI with UACC-62 melanoma and in the test with HCT-15 colon was above 100 µM in each case.
For `O=C(CC(C(=O)c1cccs1)c1ccccc1)c1ccccc1O` (centres undefined), the TGI was above 100 µM in the test with M14 melanoma; above 100 µM in the test on SK-OV-3 ovarian; above 30.2 µM with U251 CNS; above 100 µM in the test on SW-620 colon; above 100 µM with DU-145 prostate; above 100 µM in the test on SK-MEL-2 melanoma. Besides, the TGI in the test on LOX IMVI melanoma is above 47.4 µM; in the test on CCRF-CEM leukemia it was above 100 µM; with NCI-H23 lung, above 100 µM; in the test with MCF7 breast, above 38.7 µM; with K-562 leukemia, 46.6 µM; in the test on NCI/ADR-RES ovarian it was above 25.3 µM. For the same compound, the TGI in the test with UACC-257 melanoma was above 100 µM; in the test on UACC-62 melanoma, above 44.6 µM; in the test with HCT-15 colon it was above 100 µM.
As to `CC(=O)NC1=CC(=O)C=C(Cl)C1=O`, the TGI with M14 melanoma is above 100 µM; with SK-OV-3 ovarian it was above 100 µM; with U251 CNS, above 100 µM; in the test on SW-620 colon, 37 µM; in the test with DU-145 prostate, above 100 µM; in the test on SK-MEL-2 melanoma it was above 100 µM. The TGI in the test on A498 renal was above 100 µM; in the test with CCRF-CEM leukemia, 57.8 µM; in the test on NCI-H23 lung, above 100 µM; in the test on MCF7 breast it was 82.4 µM; in the test with K-562 leukemia, 93.6 µM; with NCI/ADR-RES ovarian it was above 100 µM. Also, the TGI in the test with UACC-257 melanoma, in the test with UACC-62 melanoma and in the test with HCT-15 colon was above 100 µM in each case.
Turning to `CCN(CC)c1ccc2cc(-c3csc(-c4ccc(N(C)C)cc4)n3)c(=O)oc2c1`, the TGI with M14 melanoma, with SK-OV-3 ovarian, with U251 CNS, in the test with SW-620 colon, in the test with DU-145 prostate and with SK-MEL-2 melanoma was above 100 µM each time. Besides, the TGI with LOX IMVI melanoma, with CCRF-CEM leukemia, with MCF7 breast, with K-562 leukemia, in the test with NCI/ADR-RES ovarian and in the test with UACC-257 melanoma was above 100 µM throughout. The TGI in the test on UACC-62 melanoma and in the test on HCT-15 colon was above 100 µM throughout.
Take `Nc1ccc2c(c1)S(=O)(=O)c1cc(N)ccc1-2`: the TGI in the test on M14 melanoma, in the test on SK-OV-3 ovarian, with U251 CNS, in the test on SW-620 colon, in the test on DU-145 prostate and with SK-MEL-2 melanoma was above 100 µM each time. Besides, the TGI in the test on A498 renal, with LOX IMVI melanoma, with NCI-H23 lung, in the test with MCF7 breast, in the test with K-562 leukemia and in the test on NCI/ADR-RES ovarian was above 100 µM each time. In addition, the TGI in the test with UACC-257 melanoma, in the test on UACC-62 melanoma and with HCT-15 colon was above 100 µM each time.

The record behind these values is PubChem BioAssay (NCI).
